Among the data in patent publication US5994368A, “Pyridopyrimidones, quinolines and fused N-heterocycles as bradykinin antagonists” (Fujisawa Pharmaceutical Co., Ltd., priority 1994, dated 1999) are inhibition values, retold here.

Counter-ions that a name gives are not always drawn.

The experiment addresses T1, Bradykinin receptor (Cavia porcellus, UniProt O70526).
T1 construct: The ileum was removed and homogenized in buffer; from tissue; host or cells: guinea pig ileum, crude membrane suspension
T1 sequence (O70526 1-372): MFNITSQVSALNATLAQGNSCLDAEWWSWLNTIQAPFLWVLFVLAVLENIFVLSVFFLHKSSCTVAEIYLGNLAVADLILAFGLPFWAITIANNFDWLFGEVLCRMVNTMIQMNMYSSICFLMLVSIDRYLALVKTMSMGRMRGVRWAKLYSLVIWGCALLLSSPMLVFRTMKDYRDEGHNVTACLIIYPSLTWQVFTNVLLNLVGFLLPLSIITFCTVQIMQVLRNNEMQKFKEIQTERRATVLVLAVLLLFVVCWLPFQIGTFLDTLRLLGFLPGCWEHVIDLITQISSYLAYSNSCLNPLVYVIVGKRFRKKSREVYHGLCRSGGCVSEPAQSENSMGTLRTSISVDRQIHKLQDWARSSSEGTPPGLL
Description: 3H-Bradykinin receptor binding (crude ileum membrane). Set-up: species or system guinea pig (male Hartly strain). The following applies: concentration: 1 × 10^-6 M; guinea pig ileum membrane, room temperature, 60 minutes. The protocol:
^3 H-Bradykinin receptor binding
(a) Crude ileum membrane preparation
Male Hartly strain guinea pigs were sacrificed by decapitation. The ileum was removed and homogenized in buffer (50 mM trimethylaminoethanesulfonic acid (TES), 1 mM 1,10-phenanthroline pH 6.8). The homogenate was centrifuged (1000× g, 20 minutes) to remove tissue clumps and the supernatant was centrifuges (100,000× g, 60 minutes) to yield a pellet. The pellet was resuspended in buffer (50 mM TES, 1 mM 1,10-phenanthroline, 140 mg/l bacitracin, 1 mM dithiothreiol, 0.1% bovine serum albumin pH 6.8) and homogenized with a glass-teflon homogenizer to yield suspension which was referred to as crude membrane suspension. The obtained membrane suspension was stored at -80° C. until use.
(b) ^3 H-Bradykinin binding to the membrane
The frozen crude membrane suspension was thawed. In binding assays, ^3 H-Bradykinin ([…]) and drug (1×10^-6 M) were incubated with 50 μl of the membrane suspension at room temperature for 60 minutes in a final volume of 250 μl. Separation of receptor-bound from free ^3 H-Bradykinin is achieved by immediate filtration under vacuum and washed three times with 5 ml of ice-cold buffer (50 mM Tris-HCl pH 7.5). Non-specific binding was defined as binding in the presence of 0.1 μM Bradykinin. The radioactivity retained on rinsed filters was determined by a liquid-scintillation counter.
`Cc1ccc2cccc(OCc3c(Cl)ccc(N(C)C(=O)CNC(=O)CNc4nc5ccccc5s4)c3Cl)c2n1` [2-(14), 8-[3-[N-[2-(2-Benzothiazolylamino)acetylglycyl]-N-methylamino]-2,6-dichlorobenzyloxy]-2-methylquinoline] registered an inhibition at 1 µM of 96%.

For the molecule `CNC(=O)c1ccc(/C=C/C(=O)NCC(=O)N(C)c2ccc(Cl)c(COc3cccc4c(NCCOC)cc(C)nc34)c2Cl)cc1` [10-(9) dihydrochloride], 1 µM produced 99% inhibition.

Take `CNC(=O)c1nc2ccc(C(=O)NCC(=O)N(C)c3ccc(Cl)c(COc4cccc5ccc(C)nc45)c3Cl)cc2cc1C` [25-(2) dihydrochloride]: testing at 1 µM gave an inhibition of 96%.

With `COC(=O)c1cncc(NC(=O)NCC(=O)N(C)c2ccc(Cl)c(COc3cccc4ccc(C)nc34)c2Cl)c1` [34-(3), 8-[2,6-Dichloro-3-[N-[N'-(5-methoxycarbonylpyridin-3-yl)ureidoacetyl]-N-methylamino]benzyloxy]-2-methylquinoline], the inhibition at 1 µM is 100%.

Take `CNC(=O)c1ccc(/C=C/C(=O)NCC(=O)N(C)c2ccc(Cl)c(COc3cccc4ccc(C)nc34)c2)cc1` [37-(5) hydrochloride]: 1 µM produced 100% inhibition.

In the case of `CNC(=O)c1ccc(/C=C/C(=O)NCC(=O)N(C)c2ccc(C)c(COc3cccn4c(=O)cc(C)nc34)c2C)cc1` [90-(2), 9-[2,6-Dimethyl-3-[N-methyl-N-[4(methylcarbomoyl)cinnamoylglycyl]amino]benzyloxy]-2-methyl-4H-pyrido-[1,2-a]pyrimidin-4-one], 1 µM produced 98% inhibition.

`CNC(=O)c1ccc(/C=C/C(=O)NCC(=O)N(C)c2ccc(Cl)c(CNc3cccc4ccc(C)nc34)c2Cl)cc1` [Example 73-(4), 8-[2,6-dichloro-3-[N-methyl-N-[4-(methylcarbamoyl)cinnamoylglycyl]amino]benzylamino]-2-methylquinoline dihydrochloride] had an inhibition at 1 µM of 95%.
